Source: US11076595B2, “1-(n,n-disubstituted carbamoyl) 4-(substituted sulfonyl)triazolin-5-one derivative, 4-(n,n-disubstituted carbamoyl) 1-(substituted sulfonyl)triazolin-5-one derivative, and herbicide containing said derivative as active ingredient” (HOKKO CHEMICAL INDUSTRY CO., LTD., priority 2017, dated 2021)

What was measured:
Assay type in all cases: in vivo
Echinochloa crus-galli [1] = assay: Test Example 12: herbicidal effect test by treatment during growing period in paddy field; conditions: 120 g/10a; treatment seven days after sowing in flooded paddy pot; assessed 14 days after treatment
In short: (§1)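 Water-diluted emulsifiable concentrate added dropwise to flooded pots (~3 cm water) 7 d after sowing; rate 120 g active ingredient per 10 are. Weeds grown from 30 seeds each in puddled paddy soil under greenhouse conditions. Dry-weight suppression rate relative to untreated plots determined 14 d after treatment, duplicates.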

Scirpus juncoides [2] = assay: as above; conditions: 120 g/10a; treatment seven days after sowing in flooded paddy pot; assessed 14 days after treatment
In short: as §1

Lindernia pyxidaria [3] = assay: as above; conditions: 120 g/10a; treatment seven days after sowing in flooded paddy pot; assessed 14 days after treatment
In short: as §1

Monochoria vaginalis [4] = assay: as above; conditions: 120 g/10a; treatment seven days after sowing in flooded paddy pot; assessed 14 days after treatment
In short: as §1

Echinochloa crus-galli [5] = assay: Test Example 11: herbicidal effect test by soil treatment in paddy field; conditions: 120 g/10a active ingredient, 14 days after treatment
In short: (§2)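 Pre-emergence flooded-paddy test: the water-diluted emulsifiable concentrate, 120 g active ingredient per 10 are, was dripped into pots immediately after seeding, with water held at about 3 cm. Two replicate pots per rate; 14 days after treatment, plant dry weight versus untreated pots gave the weed suppression rate.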

Scirpus juncoides [6] = assay: as above; conditions: 120 g/10a active ingredient, 14 days after treatment
In short: as §2

Lindernia pyxidaria [7] = assay: as above; conditions: 120 g/10a active ingredient, 14 days after treatment
In short: as §2

Monochoria vaginalis [8] = assay: as above; conditions: 120 g/10a active ingredient, 14 days after treatment
In short: as §2

SMILES | Weed suppression rate (%) Echinochloa crus-galli (Echinochloa crus-galli [1]) | Weed suppression rate (%) Scirpus juncoides (Scirpus juncoides [2]) | Weed suppression rate (%) Lindemia pyxidaria (Lindernia pyxidaria [3]) | Weed suppression rate (%) Monochoria vaginalis (Monochoria vaginalis [4]) | Weed suppression rate (%) Echinochloa crus-galli (Echinochloa crus-galli [5]) | Weed suppression rate (%) Scirpus juncoides (Scirpus juncoides [6]) | Weed suppression rate (%) Lindemia pyxidaria (Lindernia pyxidaria [7]) | Weed suppression rate (%) Monochoria vaginalis (Monochoria vaginalis [8])
Cc1ccc(S(=O)(=O)n2ncn(C(=O)N(c3c(F)c(F)cc(F)c3F)C(C)C)c2=O)cc1 [Compound 11-642] | 100% | 100% | 70% | 90% | 100% | 70% | 80% | 70%
Cc1ccc(S(=O)(=O)n2ncn(C(=O)N(c3ccc(Cl)cc3F)C(C)C)c2=O)cc1 [Compound 11-645] | 60% | 60% | 90% | 90% | 100% | 90% | 90% | 90%
Cc1ccc(S(=O)(=O)n2ncn(C(=O)N(c3ccc(C)cc3F)C(C)C)c2=O)cc1 [Compound 11-651] | 90% | 90% | 80% | 80% | 90% | 90% | 90% | 90%
CC(C)N(C(=O)n1cnn(S(=O)(=O)c2ccc(C(C)(C)C)cc2)c1=O)c1ccccc1F [Compound 11-672] | 90% | 90% | 80% | 80% | 90% | 90% | 80% | 80%
CC(C)N(C(=O)n1cnn(S(=O)(=O)c2ccc(C(C)(C)C)cc2)c1=O)c1cccc(F)c1F [Compound 11-681] | 100% | 100% | 90% | 100% | 100% | 100% | 90% | 80%
CC(C)N(C(=O)n1cnn(S(=O)(=O)c2ccc(C(C)(C)C)cc2)c1=O)c1ccc(F)c(F)c1F [Compound 11-685] | 80% | 60% | 60% | 70% | 90% | 60% | 100% | 100%
CC(C)N(C(=O)n1cnn(S(=O)(=O)c2ccc(C(C)(C)C)cc2)c1=O)c1c(F)c(F)cc(F)c1F [Compound 11-687] | 100% | 70% | 70% | 80% | 80% | 90% | 100% | 100%
CC(C)N(C(=O)n1cnn(S(=O)(=O)c2ccc(C(C)(C)C)cc2)c1=O)c1ccc(F)cc1Cl [Compound 11-689] | 60% | 90% | 70% | 80% | 90% | 70% | 90% | 70%
CC(C)N(C(=O)n1cnn(S(=O)(=O)c2ccc(C(C)(C)C)cc2)c1=O)c1ccc(Cl)cc1Br [Compound 11-694] | 70% | 80% | 60% | 70% | 90% | 70% | 80% | 70%
Cc1ccc(N(C(=O)n2cnn(S(=O)(=O)c3ccc(C(C)(C)C)cc3)c2=O)C(C)C)c(F)c1 [Compound 11-696] | 90% | 90% | 80% | 80% | 90% | 90% | 80% | 80%
Cc1ccc(N(C(=O)n2cnn(S(=O)(=O)c3cccc(C(F)(F)F)c3)c2=O)C(C)C)c(F)c1 [Compound 11-737] | 90% | 90% | 80% | 80% | 90% | 90% | 80% | 80%
CC(C)N(C(=O)n1cnn(S(=O)(=O)c2c(F)cccc2F)c1=O)c1cccc(F)c1F [Compound 11-772] | 100% | 90% | 70% | 90% | 100% | 80% | 90% | 80%
CC(C)N(C(=O)n1cnn(S(=O)(=O)c2c(F)cccc2F)c1=O)c1c(F)cc(F)cc1F [Compound 11-777] | 90% | 70% | 70% | 80% | 100% | 100% | 90% | 80%
CC(C)N(C(=O)n1cnn(S(=O)(=O)c2c(F)c(F)c(F)c(F)c2F)c1=O)c1ccccc1F [Compound 11-801] | 90% | 60% | 60% | 80% | 90% | 90% | 90% | 90%
Cc1ccc(N(C(=O)n2cnn(S(=O)(=O)c3c(F)c(F)c(F)c(F)c3F)c2=O)C(C)C)c(F)c1 [Compound 11-825] | 90% | 90% | 80% | 80% | 90% | 90% | 80% | 80%
Cc1cc(C)c(S(=O)(=O)n2ncn(C(=O)N(c3ccccc3F)C(C)C)c2=O)c(C)c1 [Compound 11-853] | 90% | 90% | 80% | 80% | 100% | 90% | 90% | 80%
Cc1cc(C)c(S(=O)(=O)n2ncn(C(=O)N(c3cccc(F)c3)C(C)C)c2=O)c(C)c1 [Compound 11-854] | 80% | 80% | 90% | 90% | 100% | 90% | 90% | 80%
Cc1cc(C)c(S(=O)(=O)n2ncn(C(=O)N(c3ccc(F)cc3)C(C)C)c2=O)c(C)c1 [Compound 11-855] | 80% | 80% | 60% | 80% | 100% | 90% | 90% | 90%
Cc1cc(C)c(S(=O)(=O)n2ncn(C(=O)N(c3cccc(F)c3F)C(C)C)c2=O)c(C)c1 [Compound 11-862] | 100% | 100% | 80% | 100% | 100% | 100% | 100% | 100%
